Patent US20250144250A1, “PH-SENSITIVE FLUOROPHORES” (The General Hospital Corporation, priority 2022, published 2025)

Columns and labels:
[1] = Measurement of optophysical properties (absorbance, fluorescence emission, quantum yield, pH dependence); assay type: physicochemical; settings: for Abs λMax / Em λMax / QY (quantum yield) / ε (extinction coefficient): pH 7.4
Protocol: Measurement of optophysical properties: Absorbance and fluorescence emission spectra of the series of NIR fluorophores were measured using fiber optic HR2000 absorbance (200-1100 nm) and USB2000FL fluorescence (350-1000 nm) spectrometers (Ocean Optics, Dunedin, FL). NIR excitation was provided by a 655 nm red laser pointer (Opcom Inc., Xiamen, China) set to 5 mW and coupled through a 300 μm core diameter, NA 0.22 fiber (Fiberguide Industries, Stirling, NJ). To determine the pH dependence of the fluorescence signal, optical measurements were performed at 37° C. in PBS, pH 4.0-7.4 or 100% FBS buffered with 50 mM HEPES, pH 4.0-7.4. The pH of the solutions was adjusted as appropriate with NaOH and HCl using a pH spear tester (Thermo Scientific). For fluorescence quantum yield (QY) measurements, indocyanine green (ICG) in DMSO (QY=13%) was used as a calibration standard to measure the fluorescence QY under conditions of matched absorbance at 765 nm. In silico calculations of the partition coefficient (LogP and LogD at pH 7.4), surface molecular charge, hydrophobicity, hydrogen bond acceptors/donors (HBA/HBD), the acid dissociation constant (pKa), and topological polar surface area (TPSA) were calculated using Marvin and JChem calculator plugins (ChemAxon, Budapest, Hungary). Theoretical calculations of HOMO and LUMO energy levels of fluorophores were performed based on density functional theory (DFT) with a 6-311 G basis set using Spartan 18 software (Wavefunction, Irvine, CA). […]

[2] = tested on: peritoneal dissemination of ID8 ovarian cancer; assay: Intraoperative NIR imaging in mouse model of peritoneal dissemination of ovarian cancer; assay type: in vivo, mice; settings: for TBR (tumor to background ratio): against normal pancreas
Protocol: Intraoperative NIR imaging: Seven-week-old female C57BL/6 mice were purchased from the Jackson Laboratory (Bar Harbor, ME) and housed in an AAALAC-certified facility at Massachusetts General Hospital (MGH). All animal procedures were performed in accordance with the Public Health Service Policy on Humane Care of Laboratory Animals and approved by the MGH IACUC (protocol #2016N000136). To establish a murine model of peritoneal dissemination of ovarian cancer, mice were injected intraperitoneally with 5×10^6 cells in 100 μL saline. In this model, macroscopic metastatic intraperitoneal nodules appear reproducibly at approximately 90 d. To perform NIR fluorescence imaging, mice were fed chlorophyll-free mouse chow (VWR International) at least 5 d prior to imaging to minimize autofluorescence. For in vivo imaging of ovarian cancer, animals were anesthetized with 100 mg/kg ketamine and 10 mg/kg xylazine subcutaneously (Webster Veterinary, Fort Devens, MA). Following anesthesia, a midline incision was made to expose the abdominal cavity. To evaluate in vivo tumor targetability of the NIR fluorophores, mice were intraperitoneally injected with 20 nmol of ovarian cancer-targeted NIR fluorophores dissolved in 100 μL saline containing 5 wt/v % BSA. The abdominal cavity was opened with a midline incision, and NIR images were obtained over 4 h of the exposed abdominal cavity. For NIR fluorescence imaging, we used a custom-built real-time intraoperative NIR imaging system as described previously. In this study, a 760 nm excitation was used at a fluence rate of 4 mW/cm^2, with white light (400-650 nm; 40,000 lux). Color and NIR fluorescence images were acquired simultaneously with custom software at rates up to 15 Hz over a 10 cm diameter field-of-view (FOV). Pseudo-colored lime green was used for NIR fluorescence in the color-NIR merged images. The imaging system was positioned at a distance of 9 inches from the surgical field. For all real-time intraoperative imaging, a standardized imaging protocol was used during and after the operation. General FOV (5 cm in dia.) was used to include the pancreas, head, duodenum, liver, and kidneys of a mouse, while closeup FOV (3.3 cm in dia.) included the pancreas, head, and duodenum. Color and NIR fluorescence images were taken simultaneously. Real-time fluorescence signal in tumors (Tu) and tumor-to-background ratio (TBR) compared to neighboring tissue was obtained over the period of imaging, and the fluorescence intensity was plotted to evaluate in vivo molecular biodistribution and clearance. All images were obtained using the same exposure time. Mice were euthanized 4 h post-injection with CO2 inhalation, and tumor tissues and the major organs, including the heart, lung, liver, pancreas, spleen, kidney, duodenum, intestine, muscle, and adnexa, were removed for ex vivo imaging and histological examination. NIR signals from resected tissues were imaged using the FLARE imaging system. The TBR was calculated using the same formula, with IT representing the intensity of the tumor tissue and IB representing the signal intensity of the surrounding tissue over the imaging period.
Evaluation of in vivo efficacy of NIR fluorophores for fluorescence-guided surgery (FGS): Having confirmed the pH sensitivity and tumor cell uptake of PH08 in vitro, we next evaluated the in vivo performance of the pH sensing NIR fluorophores in a mouse model of ovarian cancer. […] In this model, approximately 12 week post-peritoneal injection of ID8 cells, numerous nodules were observed on the peritoneum. These small nodules (<1 mm) are extremely difficult to localize and visualize in the surgical field. Thus, this model was suitable to test the performance of this fluorophore. For imaging of ovarian cancer, 20 nmol of PH08 was administered intraperitoneally. The abdominal cavity was then imaged on the custom-built imaging system. […]

Compound | optical response to pH [1] | Abs λMax [1] [nm] | Em λMax [1] [nm] | QY (quantum yield) [1] [%] | ε (extinction coefficient) [1] | TBR (tumor to background ratio) [2] | TBR in words ([2]; up to 4 h after administration, compared with PH08) | absorbance wavelength before red-shift ([1]; neutral pH (7.4)) [nm] | molecular absorbance ε at 760 nm ([1]; neutral pH condition (pH=7.4)) | absorbance wavelength after red-shift ([1]; pH 4.0) [nm] | molecular absorbance ε at 760 nm ([1]; pH decreases to 4.0) | time to clear visualization of small tumors after injection ([2]; 20 nmol intraperitoneally) [min] | TBR against surrounding normal tissues and other major organs ([2]; 20 nmol intraperitoneally, within 10 min of injection) | retention / preservation of signals ([2]; post-topical application) | TBR ([2]; up to 4 h after injection) | fluorescence recovery / increase time ([2]; upon topical application) [min]
CCN1/C(=C/C=C2\CCCC(/C=C/C3=[N+](CC)c4ccccc4C3(C)C)=C2c2ccccc2)C(C)(C)c2ccccc21 [PH03, 1-Ethyl-2-((E)-2-((E)-6-(2-((E)-1-ethyl-3,3-dimethylindolin-2-ylidene)ethylidene)-3,4,5,6-tetrahydro-[1,1′-biphenyl]-2-yl)vinyl)-3,3-dimethyl-3H-indol-1-ium iodide] | little to no change in response to pH | 765 | 785 | 21.7 | 364,800 M^−1cm^−1 | ++ (++, 2-3) | smaller TBRs | – | – | – | – | – | – | – | – | –
CCN1/C(=C/C=C2\CCCC(/C=C/C3=[N+](CC)c4ccccc4C3(C)C)=C2N2CCNCC2)C(C)(C)c2ccccc21 [PH08] | increases its fluorescence in mildly acidic conditions between pH 7.0 and 4.0 | 710 | 794 | 16.0 | 43,800 M^−1cm^−1 | +++ (+++, 3-5) | – | 710 | 92,600 M^−1 cm^−1 | 765 | 134,500 M^−1 cm^−1 | ≤ 10 | ~6 | at least 4 h | > 5.5 | < 10
